Reference: patent publication US9012443B2 (Amgen Inc., priority 2011, dated 2015)
pIC50: −log10 of the molar value. Where two headings read alike, the source gives them in different places.

Tests used:
Assay type in all cases: cell-based
Nav 1.7 [1] = biological target: T1, Nav 1.7 (Homo sapiens (Human), UniProt Q15858); test: Nav 1.7 in vitro PX assay (PatchXpress whole cell voltage clamp); settings: 293 cells, human Nav1.7, partially inactivated state; read-out: Nav1.7 PX IC50 IP
Summary of the method: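 Partially inactivated channel state (holding potential for 20–50% inactivation) probed in human Nav1.7-transfected 293 cells by automated patch clamp, test pulse −10 mV for 20 msec.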

Nav 1.5 = Nav 1.5 (Homo sapiens (Human), UniProt Q14524); test: Nav 1.5 in vitro PX assay (PatchXpress whole cell voltage clamp); settings: 293 cells stably transfected with Nav 1.5
Nav 1.5, sequence (Q14524 whole entry): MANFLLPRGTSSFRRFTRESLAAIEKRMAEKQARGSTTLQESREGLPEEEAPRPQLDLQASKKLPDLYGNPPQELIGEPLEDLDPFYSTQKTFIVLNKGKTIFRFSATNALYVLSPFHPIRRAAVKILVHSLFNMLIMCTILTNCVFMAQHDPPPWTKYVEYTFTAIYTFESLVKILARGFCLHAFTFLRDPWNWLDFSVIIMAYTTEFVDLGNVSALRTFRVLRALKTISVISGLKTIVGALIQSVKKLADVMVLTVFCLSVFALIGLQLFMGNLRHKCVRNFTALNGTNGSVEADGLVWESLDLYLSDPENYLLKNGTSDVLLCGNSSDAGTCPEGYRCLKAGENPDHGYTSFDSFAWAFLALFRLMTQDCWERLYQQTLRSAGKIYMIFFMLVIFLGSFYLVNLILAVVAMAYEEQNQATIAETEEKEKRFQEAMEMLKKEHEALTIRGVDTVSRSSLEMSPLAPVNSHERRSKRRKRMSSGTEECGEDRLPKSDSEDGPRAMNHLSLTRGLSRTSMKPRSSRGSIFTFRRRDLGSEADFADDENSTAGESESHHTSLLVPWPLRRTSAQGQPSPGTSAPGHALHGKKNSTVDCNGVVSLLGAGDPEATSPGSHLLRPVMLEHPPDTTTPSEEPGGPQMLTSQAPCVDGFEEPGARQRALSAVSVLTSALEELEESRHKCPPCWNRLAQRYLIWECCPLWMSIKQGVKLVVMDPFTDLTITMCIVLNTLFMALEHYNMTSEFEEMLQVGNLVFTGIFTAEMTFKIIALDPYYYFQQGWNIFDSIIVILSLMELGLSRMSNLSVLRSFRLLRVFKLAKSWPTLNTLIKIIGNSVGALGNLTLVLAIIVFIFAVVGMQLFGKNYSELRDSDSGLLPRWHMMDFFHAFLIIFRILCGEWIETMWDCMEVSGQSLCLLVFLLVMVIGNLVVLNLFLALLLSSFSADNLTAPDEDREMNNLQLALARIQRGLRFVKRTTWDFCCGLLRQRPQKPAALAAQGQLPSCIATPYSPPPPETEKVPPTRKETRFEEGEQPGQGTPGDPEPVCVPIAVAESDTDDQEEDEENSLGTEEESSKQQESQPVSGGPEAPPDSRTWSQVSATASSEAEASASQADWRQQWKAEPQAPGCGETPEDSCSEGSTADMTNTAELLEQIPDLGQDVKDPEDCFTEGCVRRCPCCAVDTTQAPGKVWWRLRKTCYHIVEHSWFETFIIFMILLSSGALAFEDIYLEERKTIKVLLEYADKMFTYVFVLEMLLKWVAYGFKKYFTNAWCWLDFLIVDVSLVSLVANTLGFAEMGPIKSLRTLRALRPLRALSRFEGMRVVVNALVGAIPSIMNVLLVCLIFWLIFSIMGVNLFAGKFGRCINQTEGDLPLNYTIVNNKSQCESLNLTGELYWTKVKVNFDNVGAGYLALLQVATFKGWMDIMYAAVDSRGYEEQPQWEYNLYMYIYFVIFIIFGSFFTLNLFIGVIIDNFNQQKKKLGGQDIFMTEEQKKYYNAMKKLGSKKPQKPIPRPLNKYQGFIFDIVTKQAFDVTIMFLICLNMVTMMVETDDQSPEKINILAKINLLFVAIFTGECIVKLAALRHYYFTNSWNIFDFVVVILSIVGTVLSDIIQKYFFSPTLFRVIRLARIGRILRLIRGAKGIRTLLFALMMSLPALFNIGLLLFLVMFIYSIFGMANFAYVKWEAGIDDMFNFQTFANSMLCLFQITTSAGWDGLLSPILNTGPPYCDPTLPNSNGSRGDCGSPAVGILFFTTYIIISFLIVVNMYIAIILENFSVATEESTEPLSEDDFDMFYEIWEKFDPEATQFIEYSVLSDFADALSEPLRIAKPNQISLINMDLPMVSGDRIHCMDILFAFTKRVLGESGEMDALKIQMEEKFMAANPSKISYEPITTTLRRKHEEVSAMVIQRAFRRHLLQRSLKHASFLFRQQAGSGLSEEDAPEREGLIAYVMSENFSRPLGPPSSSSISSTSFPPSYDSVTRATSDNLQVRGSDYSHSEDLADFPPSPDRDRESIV
Procedure: Nav 1.5 In Vitro PX Assay
293 cells stably transfected with Nav 1.5 were recorded in whole cell voltage clamp mode with the PatchXpress automated electrophysiology system according the manufacturer's specifications (Molecular Devices, LLC, Sunnyvale, Calif.). Cells were held at a holding potential of −50 mV to inactivate sodium channels. To elicit sodium currents the voltage was changed to −120 mV to recover a portion of the channels, followed by delivery of test pulses of 20 msec duration to 0 mV, at 0.1 Hz. A single concentration of test compound was applied to cells for a duration of 5 minutes. Peak sodium current was measured at the end of the compound addition period to determine percent inhibition. A minimum of two cells were tested per concentration. IC50 curves were fitted to percent inhibition as a function of concentration.

Nav 1.7 [2] = biological target: T1, Nav 1.7; test: Nav 1.7 IWQ in vitro assay (IonWorks Quattro population patch-clamp); settings: 293 cells stably transfected with Nav 1.7; second part of table; read-out: Nav1.7 IWQ IC50 IP
Summary of the method: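 Percent block, measured in duplicate, came from peak minus end-of-pulse current on the 26th −20 mV step, and IC50 was fitted against concentration. Stably transfected 293 cells were recorded in population patch-clamp mode before and after a single test concentration, which was added over 3–8 min while cells were unclamped.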

[3] = second part of table, read-out: Nav1.5 PX IC50
[4] = first part of table, read-out: Nav 1.5 PX IC50

T1 sequence (Q15858 whole entry): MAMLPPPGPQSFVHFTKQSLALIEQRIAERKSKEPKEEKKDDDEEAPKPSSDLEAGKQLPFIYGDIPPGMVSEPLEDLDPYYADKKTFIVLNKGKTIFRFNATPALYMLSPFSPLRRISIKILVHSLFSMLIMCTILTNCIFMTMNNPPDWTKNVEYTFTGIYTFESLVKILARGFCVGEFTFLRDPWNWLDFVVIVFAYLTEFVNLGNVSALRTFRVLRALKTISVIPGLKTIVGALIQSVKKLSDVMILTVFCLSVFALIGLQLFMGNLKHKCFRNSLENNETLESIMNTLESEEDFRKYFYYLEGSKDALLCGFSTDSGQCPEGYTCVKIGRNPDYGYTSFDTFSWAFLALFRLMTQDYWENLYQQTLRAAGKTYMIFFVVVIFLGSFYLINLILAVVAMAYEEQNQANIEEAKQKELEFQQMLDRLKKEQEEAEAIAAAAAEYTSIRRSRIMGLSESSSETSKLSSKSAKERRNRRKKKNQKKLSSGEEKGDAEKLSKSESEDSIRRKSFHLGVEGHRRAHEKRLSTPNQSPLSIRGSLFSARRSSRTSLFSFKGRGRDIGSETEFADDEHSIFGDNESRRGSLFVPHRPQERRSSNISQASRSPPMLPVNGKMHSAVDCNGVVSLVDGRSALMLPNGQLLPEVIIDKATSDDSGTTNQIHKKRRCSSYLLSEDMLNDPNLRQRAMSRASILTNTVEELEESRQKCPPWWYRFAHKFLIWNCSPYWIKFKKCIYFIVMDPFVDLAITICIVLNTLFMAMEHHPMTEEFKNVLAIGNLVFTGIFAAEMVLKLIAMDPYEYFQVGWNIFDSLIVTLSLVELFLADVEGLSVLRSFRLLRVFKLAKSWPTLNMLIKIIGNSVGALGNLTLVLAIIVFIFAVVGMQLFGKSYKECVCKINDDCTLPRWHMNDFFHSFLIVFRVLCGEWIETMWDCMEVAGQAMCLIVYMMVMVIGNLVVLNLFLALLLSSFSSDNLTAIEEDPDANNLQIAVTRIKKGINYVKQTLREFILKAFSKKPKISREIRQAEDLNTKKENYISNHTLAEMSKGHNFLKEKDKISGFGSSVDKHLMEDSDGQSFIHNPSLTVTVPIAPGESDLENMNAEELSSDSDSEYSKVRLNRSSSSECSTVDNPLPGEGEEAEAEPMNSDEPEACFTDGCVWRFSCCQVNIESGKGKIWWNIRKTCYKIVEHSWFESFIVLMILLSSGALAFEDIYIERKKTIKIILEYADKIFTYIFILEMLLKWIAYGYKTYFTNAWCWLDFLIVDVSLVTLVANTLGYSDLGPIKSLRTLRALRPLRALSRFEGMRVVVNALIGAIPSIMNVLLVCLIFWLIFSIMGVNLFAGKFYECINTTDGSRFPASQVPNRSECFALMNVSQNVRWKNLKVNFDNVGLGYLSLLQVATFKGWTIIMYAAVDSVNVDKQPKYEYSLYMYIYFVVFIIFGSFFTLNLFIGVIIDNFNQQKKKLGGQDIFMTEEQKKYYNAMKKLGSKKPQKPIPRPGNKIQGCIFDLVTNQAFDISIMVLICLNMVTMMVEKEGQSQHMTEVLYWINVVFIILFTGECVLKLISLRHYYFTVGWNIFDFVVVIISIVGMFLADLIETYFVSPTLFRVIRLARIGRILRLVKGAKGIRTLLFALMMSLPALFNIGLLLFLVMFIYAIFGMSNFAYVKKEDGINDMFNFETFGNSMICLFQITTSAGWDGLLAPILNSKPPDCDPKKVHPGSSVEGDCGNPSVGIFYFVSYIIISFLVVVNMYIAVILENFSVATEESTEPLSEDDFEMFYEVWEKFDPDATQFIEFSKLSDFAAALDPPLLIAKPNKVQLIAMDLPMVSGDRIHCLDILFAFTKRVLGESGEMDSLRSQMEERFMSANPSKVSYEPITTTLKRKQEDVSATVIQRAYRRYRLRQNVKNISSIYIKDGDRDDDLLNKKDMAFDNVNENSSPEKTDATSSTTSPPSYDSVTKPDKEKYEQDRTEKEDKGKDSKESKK

SMILES | pIC50 (Nav 1.7 [1]) | pIC50 (Nav 1.5; [3]) | pIC50 (Nav 1.5; [4]) | pIC50 (Nav 1.7 [2])
N#CCOc1cc(C(F)(F)F)ccc1-c1nccc2cc(S(=O)(=O)Nc3nccs3)ccc12 [Example 374, 1-(2-(CYANOMETHOXY)-4-(TRIFLUOROMETHYL)PHENYL)-N-(THIAZOL-2-YL)ISOQUINOLINE-6-SULFONAMIDE] | 6.51 | < 4.52 |  | 
N#CCOc1cc(F)ccc1-c1nccc2cc(S(=O)(=O)Nc3nccs3)ccc12 [Example 192, 1-(2-(CYANOMETHOXY)-4-FLUOROPHENYL)-N-(THIAZOL-2-YL)ISOQUINOLINE-6-SULFONAMIDE] | 6.48 | < 4.52 |  | 
O=S(=O)(Nc1ncns1)c1ccc2c(-c3ccc(Cl)cc3)cccc2c1 [Example 34] |  |  | 5.22 | 
COc1cc(C)ccc1-c1nccc2cc(S(=O)(=O)Nc3nccs3)ccc12 [Example 175] |  | < 4.52 |  | 
Nc1cc(Cl)ccc1-c1cccc2cc(S(=O)(=O)Nc3ncns3)ccc12 [Example 31] |  |  | < 4.52 | 
COc1cc(Cl)ccc1-c1cccc2cc(S(=O)(=O)Nc3ncns3)ccc12 [Example 30] |  |  | 4.70 | 
O=S(=O)(Nc1ncns1)c1ccc2c(-c3ccc(C(F)(F)F)cc3)cccc2c1 [Example 37] |  |  | 4.84 | 
O=S(=O)(Nc1ncns1)c1ccc2c(-c3ccc(C(F)(F)F)cc3F)cccc2c1 [Example 36] |  |  | 4.82 | 
COc1cc(C#N)ccc1-c1nccc2cc(S(=O)(=O)Nc3nccs3)ccc12 [Example 205, 1-(4-CYANO-2-METHOXYPHENYL)-N-(THIAZOL-2-YL)ISOQUINOLINE-6-SULFONAMIDE] | 6.33 |  |  | 7.70
O=S(=O)(Nc1ncns1)c1ccc2c(-c3ccc(Cl)cc3F)cccc2c1 [Example 35] |  |  | 5.00 | 
O=S(=O)(Nc1nccs1)c1ccc2c(-c3ccc(F)cc3O)nccc2c1 [Example 189, 1-(4-FLUORO-2-HYDROXYPHENYL)-N-(THIAZOL-2-YL)ISOQUINOLINE-6-SULFONAMIDE] | 5.22 |  |  | 6.34
CCOc1ccccc1-c1nccc2cc(S(=O)(=O)Nc3ccncn3)ccc12 [Example 173, 1-(2-ETHOXYPHENYL)-N-(PYRIMIDIN-4-YL)ISOQUINOLINE-6-SULFONAMIDE] | 5.06 |  |  | 6.37
COc1cc(C2CC2)ccc1-c1cccc2cc(S(=O)(=O)Nc3ccncn3)ccc12 [Example 125] | 6.20 |  |  | 7.40
CNc1cc2cc(S(=O)(=O)Nc3nccs3)ccc2c(-c2ccc(C(F)(F)F)cc2OC)n1 [Example 222, 1-(2-METHOXY-4-(TRIFLUOROMETHYL)PHENYL)-3-(METHYLAMINO)-N-(THIAZOL-2-YL)ISOQUINOLINE-6-SULFONAMIDE] | 6.04 |  |  | 7.70
COc1cc(C(F)(F)F)ccc1-c1ncc(F)c2cc(S(=O)(=O)Nc3nccs3)ccc12 [Example 212, 4-FLUORO-1-(2-METHOXY-4-(TRIFLUOROMETHYL)PHENYL)-N-(THIAZOL-2-YL)ISOQUINOLINE-6-SULFONAMIDE] | 6.57 |  |  | 7.52
COc1cc(C(F)(F)F)ccc1-c1nc(Cl)cc2cc(S(=O)(=O)Nc3nccs3)ccc12 [Example 219, 3-CHLORO-1-(2-METHOXY-4-(TRIFLUOROMETHYL)PHENYL)-N-(THIAZOL-2-YL)ISOQUINOLINE-6-SULFONAMIDE] | 6.10 |  |  | 6.77
COc1cc(C#N)ccc1-c1ncnc2cc(S(=O)(=O)Nc3nccs3)ccc12 [Example 269, 4-(4-CYANO-2-METHOXYPHENYL)-N-(THIAZOL-2-YL)QUINAZOLINE-7-SULFONAMIDE] | 6.33 |  |  | 7.70
O=S(=O)(Nc1nccs1)c1ccc2c(-c3ccc(C(F)(F)F)cc3F)nccc2c1 [Example 228, 1-(2-FLUORO-4-(TRIFLUOROMETHYL)PHENYL)-N-(THIAZOL-2-YL)ISOQUINOLINE-6-SULFONAMIDE] | 5.82 |  |  | 6.96
COc1cc(Cl)ccc1-c1nncc2cc(S(=O)(=O)Nc3nccs3)ccc12 [Example 249, 1-(4-CHLORO-2-METHOXYPHENYL)-N-(THIAZOL-2-YL)PHTHALAZINE-6-SULFONAMIDE] | 6.54 |  |  | 7.52
COc1cc(C(F)(F)F)ccc1-c1nccc2cc(S(=O)(=O)Nc3ncccn3)ccc12 [Example 188, 1-(2-METHOXY-4-(TRIFLUOROMETHYL)PHENYL)-N-(PYRIMIDIN-2-YL)ISOQUINOLINE-6-SULFONAMIDE] | 5.45 |  |  | 6.70

SMILES | pIC50 (Nav 1.7 [1]) | pIC50 (Nav 1.5; [3]) | pIC50 (Nav 1.5; [4]) | pIC50 (Nav 1.7 [2])
COc1cc(F)ccc1-c1nccc2cc(S(=O)(=O)Nc3ccncn3)ccc12 [Example 167, 1-(4-FLUORO-2-METHOXYPHENYL)-N-(PYRIMIDIN-4-YL)ISOQUINOLINE-6-SULFONAMIDE] | 5.37 |  |  | 7.30
COc1cc(F)c(C)cc1-c1nccc2cc(S(=O)(=O)Nc3ccncn3)ccc12 [Example 154] | 5.66 |  |  | 7.40
CN1CCC(c2cc(C(F)(F)F)ccc2-c2cccc3cc(S(=O)(=O)Nc4ccncn4)ccc23)CC1 [Example 116] | 6.21 |  |  | 7.15
Cn1cncc1-c1cc(C(F)(F)F)ccc1-c1cccc2cc(S(=O)(=O)Nc3ccncn3)ccc12 [Example 123] | 6.29 |  |  | 7.30
CS(=O)(=O)c1cc(C(F)(F)F)ccc1-c1cccc2cc(S(=O)(=O)Nc3ccncn3)ccc12 [Example 117] | 5.54 |  |  | 6.74
COc1cc(F)ccc1-c1ccnc2cc(S(=O)(=O)Nc3nccs3)ccc12 [Example 274, 4-(4-FLUORO-2-METHOXYPHENYL)-N-(THIAZOL-2-YL)QUINOLINE-7-SULFONAMIDE] | 6.31 |  |  | 7.52
COc1cc(C(F)(F)F)ccc1-c1ncc(C#N)c2cc(S(=O)(=O)Nc3nccs3)ccc12 [Example 240, 4-CYANO-1-(2-METHOXY-4-(TRIFLUOROMETHYL)PHENYL)-N-(THIAZOL-2-YL)ISOQUINOLINE-6-SULFONAMIDE] | 6.41 |  |  | 6.72
O=S(=O)(Nc1nccs1)c1ccc2c(N3CCC[C@H]3c3ccccc3)nccc2c1 [Example 239, (S)-1-(2-PHENYLPYRROLIDIN-1-YL)-N-(THIAZOL-2-YL)ISOQUINOLINE-6-SULFONAMIDE] | 5.34 |  |  | 5.84
COc1cc(C#N)ccc1-c1nccc2cc(S(=O)(=O)Nc3ccncn3)ccc12 [Example 206, 1-(4-CYANO-2-METHOXYPHENYL)-N-(PYRIMIDIN-4-YL)ISOQUINOLINE-6-SULFONAMIDE] | 5.35 |  |  | 6.96
COc1cc(F)c(F)cc1-c1nccc2cc(S(=O)(=O)Nc3ccncn3)ccc12 [Example 142, 1-(4,5-DIFLUORO-2-METHOXYPHENYL)-N-(PYRIMIDIN-4-YL)ISOQUINOLINE-6-SULFONAMIDE] | 5.75 |  |  | 7.22
N#CCn1c(-c2cccc3cc(S(=O)(=O)Nc4ccncn4)ccc23)cc2cc(F)ccc21 [Example 105] | 5.11 |  |  | 5.61
CN(Cc1ccccc1)c1cccc2cc(S(=O)(=O)Nc3ncns3)ccc12 [Example 100, 5-(benzyl(methyl)amino)-N-(1,2,4-thiadiazol-5-yl)naphthalene-2-sulfonamide] | 5.84 |  |  | 6.54
Cc1cc(Cl)ccc1-c1cccc2cc(S(=O)(=O)Nc3ncns3)ccc12 [Example 33] |  |  | 5.02 | 
COc1cc(C#N)ccc1-c1nncc2cc(S(=O)(=O)Nc3nccs3)ccc12 [Example 251, 1-(4-CYANO-2-METHOXYPHENYL)-N-(THIAZOL-2-YL)PHTHALAZINE-6-SULFONAMIDE] | 5.70 |  |  | 7.10
O=S(=O)(Nc1ncns1)c1ccc2c(N3CCCC3c3cccnc3)cccc2c1 (stereo not drawn) [Example 85] | 6.76 |  |  | 8.00
COc1cc2ccccc2cc1-c1nccc2cc(S(=O)(=O)Nc3ccncn3)ccc12 [Example 155, 1-(3-METHOXYNAPHTHALEN-2-YL)-N-(PYRIMIDIN-4-YL)ISOQUINOLINE-6-SULFONAMIDE] | 5.95 |  |  | 7.52
NC(=O)c1cc(C(F)(F)F)ccc1-c1nccc2cc(S(=O)(=O)Nc3nccs3)ccc12 [Example 227, 2-(6-(N-(THIAZOL-2-YL)SULFAMOYL)ISOQUINOLIN-1-YL)-5-(TRIFLUOROMETHYL)BENZAMIDE] | 5.64 |  |  | 6.96
COc1cc(Cl)ccc1-c1nccc2cc(S(=O)(=O)Nc3nccs3)ccc12 [Example 201, 1-(4-CHLORO-2-METHOXYPHENYL)-N-(THIAZOL-2-YL)ISOQUINOLINE-6-SULFONAMIDE] | 6.50 |  |  | 7.70
COc1cc(C(F)(F)F)ccc1-c1nccc2cc(S(=O)(=O)Nc3ncncc3F)ccc12 [Example 183, N-(5-FLUOROPYRIMIDIN-4-YL)-1-(2-METHOXY-4-(TRIFLUOROMETHYL)PHENYL)ISOQUINOLINE-6-SULFONAMIDE] | 5.23 |  |  | 6.17
COc1ccc(C(F)(F)F)cc1-c1nccc2cc(S(=O)(=O)Nc3ccncn3)ccc12 [Example 139, 1-(2-METHOXY-5-(TRIFLUOROMETHYL)PHENYL)-N-(PYRIMIDIN-4-YL)ISOQUINOLINE-6-SULFONAMIDE] | 6.38 |  |  | 8.00
